Assay results taken from publication PMC10569036.

Experiments:
[1] = shake flask on a mixture of 185; loss from the water phase only; LC-QTOF peak areas; details: room
[2] = shake flask on a mixture of 185; loss from the water phase only; LC-Orbitrap peak areas; details: room

Structure (SMILES)	log partition 1-octanol / HPLC water, unbuffered, traces of methanol / DMSO [1] [log10]	log partition butyl acetate / HPLC water, unbuffered, traces of methanol / DMSO [1] [log10]	log partition chloroform / HPLC water, unbuffered, traces of methanol / DMSO [1] [log10]	log partition cyclohexane / HPLC water, unbuffered, traces of methanol / DMSO [1] [log10]	log partition dichloromethane / HPLC water, unbuffered, traces of methanol / DMSO [1] [log10]	log partition n-hexane / HPLC water, unbuffered, traces of methanol / DMSO [1] [log10]	log partition n-octane / HPLC water, unbuffered, traces of methanol / DMSO [1] [log10]	log partition n-undecane / HPLC water, unbuffered, traces of methanol / DMSO [1] [log10]	log partition oleylalcohol / HPLC water, unbuffered, traces of methanol / DMSO [1] [log10]	log partition toluene / HPLC water, unbuffered, traces of methanol / DMSO [1] [log10]	log partition 1-octanol / HPLC water, unbuffered, traces of methanol / DMSO [2] [log10]	log partition butyl acetate / HPLC water, unbuffered, traces of methanol / DMSO [2] [log10]	log partition chloroform / HPLC water, unbuffered, traces of methanol / DMSO [2] [log10]	log partition cyclohexane / HPLC water, unbuffered, traces of methanol / DMSO [2] [log10]	log partition dichloromethane / HPLC water, unbuffered, traces of methanol / DMSO [2] [log10]	log partition n-hexane / HPLC water, unbuffered, traces of methanol / DMSO [2] [log10]	log partition n-octane / HPLC water, unbuffered, traces of methanol / DMSO [2] [log10]	log partition n-undecane / HPLC water, unbuffered, traces of methanol / DMSO [2] [log10]	log partition oleylalcohol / HPLC water, unbuffered, traces of methanol / DMSO [2] [log10]	log partition toluene / HPLC water, unbuffered, traces of methanol / DMSO [2] [log10]
Oc1c(Cl)cc(Cl)cc1Sc1cc(Cl)cc(Cl)c1O	0.7477	1.778	1.227	1.174	1.541	1.101	1.178	0.844	1.386	1.7	–	–	–	–	–	–	–	–	–	–
CO/C=C(/C(=O)OC)c1ccccc1Oc1cc(Oc2ccccc2C#N)ncn1	2.62	3.136	2.817	1.291	2.944	0.8262	0.8047	0.5559	2.323	2.329	–	–	–	–	–	–	–	–	–	–
CCCCCCCCCCCC(=O)OCC(O)CO (stereo not drawn)	–	–	–	–	–	–	–	–	–	–	-0.5214	-0.773	-0.7717	-1.167	-0.6352	-1.755	-1.639	-1.584	-1.087	-1.18
CCCC1COC(Cn2cncn2)(c2ccc(Cl)cc2Cl)O1 (stereo not drawn)	–	–	–	–	–	–	–	–	–	–	0.3483	0.1767	0.2115	0.2977	0.2897	0.2474	0.3088	0.1588	0.003105	0.07569
CCCCC(CC)C(=O)OCCOCCOCCOCCOC(=O)C(CC)CCCC (stereo not drawn)	–	–	–	–	–	–	–	–	–	–	1.119	-0.08786	-0.484	-2.242	-0.03133	-1.802	-2.665	-0.9886	1.482	0.3117
COC(=O)c1ccc(C(=O)OC)c(C(=O)OC)c1	–	–	–	–	–	–	–	–	–	–	1.294	0.7248	1.573	1.164	1.169	0.9609	1.205	0.9207	0.6631	1.185
COC(=O)c1sccc1S(N)(=O)=O	–	–	–	–	–	–	–	–	–	–	1.602	1.673	1.568	-1.037	1.105	-1.408	-1.192	-1.316	0.8181	0.3445
O=C(O)c1ccccc1C(c1ccc(O)cc1)c1ccc(O)cc1	–	–	–	–	–	–	–	–	–	–	-0.6855	0.116	-0.6877	-1.286	-0.3134	-0.9598	-1.232	-1.337	-0.1989	-0.7201
NC(=O)N/N=C/c1ccc([N+](=O)[O-])o1	–	–	–	–	–	–	–	–	–	–	1.712	0.5487	0.2279	–	0.3361	–	–	–	0.1785	-0.2455
CN1C(=O)CCS(=O)(=O)C1c1ccc(Cl)cc1 (stereo not drawn)	–	–	–	–	–	–	–	–	–	–	–	–	3.591	–	5.525	–	–	–	–	4.586
CC(=O)CCc1ccc(OC(C)=O)cc1	–	–	–	–	–	–	–	–	–	–	-0.06689	0.7696	1.426	-0.7757	1.412	-1.074	-1.39	-1.078	-0.5711	-0.2898
